Results reported in patent US20230110113A1, “FGFR TYROSINE KINASE INHIBITORS FOR THE TREATMENT OF HIGH-RISK NON-MUSCLE INVASIVE BLADDER CANCER” (Janssen Pharmaceutica NV, priority 2020, published 2023).

Key:
[1] = system: EJ28 bladder cancer cell line (FGFR status unknown); conditions: EJ28, FGFR3 status unknown
[2] = system: T24 bladder cancer cell line (WT); conditions: T24, FGFR3 WT
[3] = system: UM-UC-1 bladder cancer cell line (WT); conditions: MTT

COc1cc(OC)cc(N(CCNC(C)C)c2ccc3ncc(-c4cnn(C)c4)nc3c2)c1 [erdafitinib, N-(3,5-dimethoxyphenyl)-N′-(1-methylethyl)-N-[3-(1-methyl-1H-pyrazol-4-yl)quinoxalin-6-yl]ethane-1,2-diamine]
Sensitivity of cell line to erdafitinib (in words) [1]: not sensitive | Sensitivity of cell line to erdafitinib (in words) [2]: not sensitive | Cell viability max effect [3]: 80%
